This is an account of results in patent publication US11046714B2, “2,2-difluorodioxolo A2A receptor antagonists” (Merck Sharp & Dohme Corp., priority 2013, dated 2021).

The structures appear in SMILES notation.

human A2A receptor, sequence (P29274 whole entry): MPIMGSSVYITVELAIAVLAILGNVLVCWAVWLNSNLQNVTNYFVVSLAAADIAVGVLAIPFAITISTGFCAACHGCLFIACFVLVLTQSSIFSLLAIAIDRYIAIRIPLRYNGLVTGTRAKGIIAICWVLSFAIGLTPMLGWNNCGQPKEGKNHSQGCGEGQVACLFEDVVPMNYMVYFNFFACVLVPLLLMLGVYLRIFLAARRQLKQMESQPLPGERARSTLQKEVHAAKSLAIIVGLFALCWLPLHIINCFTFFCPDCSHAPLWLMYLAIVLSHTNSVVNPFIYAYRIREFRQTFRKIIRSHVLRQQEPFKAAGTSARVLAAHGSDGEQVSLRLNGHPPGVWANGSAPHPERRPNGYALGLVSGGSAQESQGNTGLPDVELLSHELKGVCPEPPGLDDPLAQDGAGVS

This experiment addresses human A2A receptor (Homo sapiens (Human), UniProt P29274). The experiment in a line: competition binding assay using Scintillation Proximity technology. The conditions noted are these: membranes from CHO-K1 cells expressing the human A2a receptor; 2.0 nM tritiated compound; Cheng-Prusoff. The essentials: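 Membranes (1.0 μg) from CHO-K1 cells expressing human A2A were treated with adenosine deaminase, then incubated 1 h at room temperature with compound (3000–0.15 nM) and 2.0 nM tritiated SCH-type ligand on WGA SPA beads in PBS plus 10 mM MgCl2. Nonspecific binding was defined with 1 μM CGS 15943. Ki was derived from EC50 via Cheng-Prusoff.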
In turn, `Nc1nc2c3c(ccc2c2nc(CCN4CCC5(CCNCC5)C4)nn12)OC(F)(F)O3` [Example 53, 8-[2-(2,8-diazaspiro[4.5]dec-2-yl)ethyl]-2,2-difluoro[1,3] dioxolo[4,5-h][1,2,4]triazolo [1,5-c]quinazolin-5-amine] returned an inhibition constant (Ki) of 39 nM. The molecule `Cc1ncc(CN(CCc2nc3c4ccc5c(c4nc(N)n3n2)OC(F)(F)O5)CC2CC2)s1` [Example 61, 8-(2-{(cyclopropylmethyl)[(2-methyl-1,3-thiazol-5-yl)methyl]amino}ethyl)-2,2-difluoro[1,3]dioxolo[4,5-h][1,2,4]triazolo[1,5-c]quinazolin-5-amine] came in with an inhibition constant Ki of 1.5 nM. Molecule `C[C@@H]1C[C@H](F)CN1CCc1nc2c3ccc4c(c3nc(N)n2n1)OC(F)(F)O4` [Example 22, 2,2-difluoro-8-{2-[(2R,4S)-4-fluoro-2-methylpyrrolidin-1-yl]ethyl}[1,3]dioxolo[4,5-h][1,2,4]triazolo[1,5-c]quinazolin-5-amine] returned a Ki of 1.5 nM. Consider `Nc1nc2c3c(ccc2c2nc(CNCc4ccc(C(F)(F)F)cc4)nn12)OC(F)(F)O3` [Example 124, 2,2-difluoro-8-({[4-(trifluoromethyl)benzyl]amino}methyl)[1,3]dioxolo [4,5-h][1,2,4]triazolo[1,5-c]quinazolin-5-amine], for which the Ki amounted to 1.6 nM. The Ki values of the last two molecules are within 1.5-fold of each other.

Molecule `Nc1nc2c3c(ccc2c2nc(CCN4CCc5nc(C6CC6)oc5C4)nn12)OC(F)(F)O3` [Example 14, 8-[2-(2-cyclopropyl-6,7-dihydro[1,3]oxazolo[5,4-c]pyridin-5(4H)-yl)ethyl]-2,2-difluoro[1,3]dioxolo[4,5-h][1,2,4]triazolo[1,5-c]quinazolin-5-amine] yielded a Ki of 0.9 nM. Compared with the last molecule, the Ki is about 1.8-fold lower. Next, `Nc1nc2c3c(ccc2c2nc(CCN4CC5CC4C(F)(F)C5)nn12)OC(F)(F)O3` (single isomer, unassigned) [Example 66, (R or S)-8-[2-(6,6-difluoro-2-azabicyclo[2.2.1]hept-2-yl)ethyl]-2,2-difluoro[1,3]dioxolo[4,5-h][1,2,4] triazolo[1,5-c]quinazolin-5-amine]: 3 nM; `C[C@H]1COCCN1CCc1nc2c3ccc4c(c3nc(N)n2n1)OC(F)(F)O4` [Example 43, 2,2-difluoro-8-{2-[(3S)-3-methylmorpholin-4-yl]ethyl}[1,3]dioxolo[4,5-h][1,2,4]triazolo[1,5-c]quinazolin-5-amine]: 7.8 nM.

The molecule `C[C@@H]1CC(F)(F)CCN1CCc1nc2c3ccc4c(c3nc(N)n2n1)OC(F)(F)O4` [Example 31, 8-{2-[(2R)-4,4-difluoro-2-methylpiperidin-1-yl]ethyl}-2,2-difluoro[1,3]dioxolo[4,5-h][1,2,4]triazolo[1,5-c]quinazolin-5-amine] had a Ki of 2.2 nM. `COCCN1CCC(Cc2nc3c4ccc5c(c4nc(N)n3n2)OC(F)(F)O5)C1` (single isomer, unassigned) [Example 157, (R or S)-2,2-difluoro-8-{[1-(2-methoxyethyl)pyrrolidin-3-yl]methyl}[1,3]dioxolo [4,5-h][1,2,4]triazolo[1,5-c]quinazolin-5-amine] yielded an inhibition constant Ki of 75 nM.

In turn, `C[C@@H](Cc1nc2c3ccc4c(c3nc(N)n2n1)OC(F)(F)O4)N1Cc2ccncc2C1` [Example 87, (S)-8-(2-(1H-pyrrolo[3,4-c]pyridin-2(3H)-yl)propyl)-2,2-difluoro-[1,3]dioxolo[4,5-h][1,2,4]triazolo[1,5-c]quinazolin-5-amine] returned a Ki of 7.7 nM. For `CC(Cc1nc2c3ccc4c(c3nc(N)n2n1)OC(F)(F)O4)N1Cc2cccnc2C1` (single isomer, unassigned) [Example 92, 8-[(2R or 2S)-2-(5,7-dihydro-6H-pyrrolo[3,4-b]pyridin-6-yl)propyl]-2,2-difluoro[1,3]dioxolo[4,5-h][1,2,4]triazolo[1,5-c]quinazolin-5-amine], the affinity, expressed as Ki, was 4 nM.

`CC(Cc1nc2c3ccc4c(c3nc(N)n2n1)OC(F)(F)O4)N1CC(F)(F)C1` (single isomer, unassigned) [Example 94, (R or S)-8-[2-(3,3-difluoroazetidin-1-yl)propyl]-2,2-difluoro[1,3] dioxolo[4,5-h][1,2,4]triazolo[1,5-c] quinazolin-5-amine]: the Ki was 4.1 nM.

As to `CCC1(F)CN(CCc2nc3c4ccc5c(c4nc(N)n3n2)OC(F)(F)O5)C1` [Example 17, 8-[2-(3-ethyl-3-fluoroazetidin-1-yl)ethyl]-2,2-difluoro[1,3] dioxolo[4,5-h][1,2,4]triazolo [1,5-c]quinazolin-5-amine], the Ki worked out at 3.5 nM. Next, `Nc1nc2c3c(ccc2c2nc(CCN4Cc5ccc(F)cc5C4)nn12)OC(F)(F)O3` [Example 8, 2,2-difluoro-8-[2-(5-fluoro-1,3-dihydro-2H-isoindol-2-yl)ethyl][1,3]dioxolo[4,5-h][1,2,4]triazolo[1,5-c]quinazolin-5-amine]: 2.1 nM. Next, `Nc1nc2c3c(ccc2c2nc(CCN4CCCC(C(F)(F)F)C4)nn12)OC(F)(F)O3` (stereo not shown) [Example 62, 2,2-difluoro-8-{2-[3-(trifluoromethyl)piperidin-1-yl]ethyl}[1,3]dioxolo[4,5-h][1,2,4]triazolo[1,5-c]quinazolin-5-amine]: 3.6 nM; `Nc1nc2c3c(ccc2c2nc(CN4CCC(F)(F)CC4)nn12)OC(F)(F)O3` [Example 119, 8-[(4,4-difluoropiperidin-1-yl)methyl]-2,2-difluoro[1,3]dioxolo[4,5-h][1,2,4] triazolo[1,5-c]quinazolin-5-amine]: 1.7 nM. `Nc1nc2c3c(ccc2c2nc(CNC4(C(F)(F)F)CCC4)nn12)OC(F)(F)O3` [Example 125, 2,2-difluoro-8-({[1-(trifluoromethyl)cyclobutyl]amino}methyl)[1,3]dioxolo [4,5-h][1,2,4]triazolo[1,5-c]quinazolin-5-amine] registered a Ki of 1.1 nM. With `Nc1nc2c3c(ccc2c2nc(CCNCc4ccc(C(F)(F)F)cc4)nn12)OC(F)(F)O3` [Example 59, 2,2-difluoro-8-(2-{[4-(trifluoromethyl)benzyl]amino}ethyl)[1,3]dioxolo[4,5-h][1,2,4]triazolo[1,5-c]quinazolin-5-amine], the Ki amounted to 6.2 nM. Molecule `Nc1nc2c3c(ccc2c2nc(CCN4CCC(F)CC4)nn12)OC(F)(F)O3` [Example 27, 2,2-difluoro-8-[2-(4-fluoropiperidin-1-yl)ethyl] [1,3]dioxolo[4,5-h][1,2,4] triazolo[1,5-c]quinazolin-5-amine] came in with a Ki of 7.8 nM. `C[C@H](Cc1nc2c3ccc4c(c3nc(N)n2n1)OC(F)(F)O4)N1CCc2ccncc21` [Example 76, 8-[(2R)-2-(2,3-dihydro-1H-pyrrolo [2,3-c]pyridin-1-yl)propyl]-2,2-difluoro[1,3]dioxolo[4,5-h][1,2,4] triazolo[1,5-c]quinazolin-5-amine] returned a Ki of 1.8 nM.

The molecule `Cc1ncc(N2CCN(CCc3nc4c5ccc6c(c5nc(N)n4n3)OC(F)(F)O6)[C@H](C)C2)s1` [Example 45, 2,2-difluoro-8-{2-[(2R)-2-methyl-4-(2-methyl-1,3-thiazol-5-yl)piperazin-1-yl]ethyl} [1,3]dioxolo[4,5-h][1,2,4] triazolo[1,5-c]quinazolin-5-amine] registered a Ki of 1.5 nM. Next, `CCc1nnc2n1CCN(Cc1nc3c4ccc5c(c4nc(N)n3n1)OC(F)(F)O5)C2` [Example 122, 8-[(3-ethyl-5,6-dihydro[1,2,4]triazolo [4,3-a]pyrazin-7(8H)-yl)methyl]-2,2-difluoro[1,3]dioxolo[4,5-h][1,2,4] triazolo[1,5-c]quinazolin-5-amine]: 110 nM.
